Assay results reported in patent US11542271B2, “Fused heteroaromatic-aniline compounds for treatment of dermal disorders” (NFlection Therapeutics, Inc., priority 2017, dated 2023).
“Also recorded” adds a separate entry of the source.

Assays:
MAP2K1 (MEK1) = target: T1, MAP2K1 (MEK1) (Homo sapiens, UniProt Q02750); experiment: MEK Inhibition Assay (Biological Example 1b, Z'-LYTE); details: Biological Example 1b (compounds 1, 3, 5, 7-8); read-out: Assay 1: biochemical MEK IC50
T1 construct: purchased ThermoFisher
Experimental: MEK1 inhibitory activity of compounds were tested using the following procedure (protocol available at thermofisher.com/content/dam/LifeTech/migration/files/drug-discovery/pdfs.par.60256.file.dat/20130430%20ssbk%20customer%20protocol%20and%20assay%20conditions.pdf). The Z′-LYTE biochemical assay (ThermoFisher) employs a fluorescence-based, coupled-enzyme format and is based on the differential sensitivity of phosphorylated and non-phosphorylated peptides to proteolytic cleavage.
Test compounds in 100% DMSO were screened in 1% DMSO (final) in the well. For 10 point titrations, 3-fold serial dilutions are conducted from the starting concentration of 30 μM.
After the 1 hour incubation, 5 μL of a 1:1024 dilution of Development Reagent A (available from Invitrogen, catalog no. PV3295) was added.
ATP solutions were diluted to a 4× working concentration in Kinase Buffer (50 mM HEPES pH 7.5, 0.01% BRIJ-35, 10 mM MgCl2, 1 mM EGTA). ATP Km apparent was previously determined using a Z′-LYTE assay. The Development Reagent was diluted in Development Buffer (available from Invitrogen, catalog no. P3127).
Assay Protocol: 2.5 μL of 4× test compound or 100 nL of 100× Test Compound plus 2.4 μL Kinase Buffer, 5 μL of the 2× Peptide/Kinase Mixture, 2.5 μL of 4×ATP Solution were added to the plates and placed on a shake plate for 30-seconds. The kinase reaction was allowed to proceed for 60-minute at room temperature, before 5 μL of Development Reagent Solution was added, and the mixture agitated for 30-seconds on a shake plate. The mixture was incubated for 60-minute at room temperature. Fluorescence was measured using a plate reader and the data were analyzed.
This control yielded 100% cleaved peptide in the Development Reaction. The 100% Phosphorylation Control, which consisted of a synthetically phosphorylated peptide of the same sequence as the peptide substrate, was designed to allow for the calculation of percent phosphorylation. This control yielded a very low percentage of cleaved peptide in the Development Reaction. The 0% Phosphorylation and 100% Phosphorylation Controls allow for the calculation of the percent phosphorylation achieved in a specific reaction well.
The minimum emission ratio in a screen was established by the 0% Inhibition Control, which contained active kinase. This control was designed to produce a 10-50% phosphorylated peptide in the Kinase Reaction. Cascade assays may produce up to 70% phosphorylated peptide.
A known inhibitor control standard curve, 10 point titration, was run for each individual kinase on the same plate as the kinase to ensure the kinase was inhibited within an expected IC50 range previously determined.
The following controls are prepared for each concentration of Test Compound assayed. […] The expected value for a non-interfering compound should be 100%. Any value outside of 90% to 110% was flagged. […] The expected value for a non-fluorescence compound should be 0%. Any value >20% was flagged.
The data in Table A was calculated. XLfit from IDBS was used. The dose response curve was curve fit to model number 205 (sigmoidal dose-response model).

[1] = S9 Stability Assay, human liver S9 fraction; assay type: in vitro ADME
Experimental: Compounds were assessed for metabolic stability in human skin by assessing their rate of disappearance from human S9 skin fraction. Similarly, compounds were assessed for metabolic stability in human liver by assessing their rate of disappearance from human S9 liver fraction. The protocol below can be used to assess the difference between skin and hepatic metabolism.
The assay was carried out in 96-well microtiter plates at 37° C. Reaction mixtures (25 μL) contained a final concentration of 1 μM test compound, 2 mg/mL liver or skin S9 protein, and 1 mM NADPH in buffer (100 mM potassium phosphate, pH 7.4 buffer with 1 mM EDTA, 3 mM MgCl2). At each of the time points (0, 15, 30, and 60 minutes), 150 μL of quench solution (100% acetonitrile with 0.1% formic acid) with internal standard was transferred to each well. Besides the zero minute controls, mixtures containing the same components except the NADPH were also prepared as the negative control. Verapamil or testosterone was included as a positive control to verify assay performance. Plates were sealed and centrifuged at 4° C. for 15 minutes at 4000 rpm. The supernatant was transferred to fresh plates for LC/MS/MS analysis.
All samples were analyzed on LC/MS/MS using an AB Sciex API 4000 instrument, coupled to a Shimadzu LC-20AD LC Pump system. Analytical samples were separated using a Waters Atlantis T3 dC18 reverse phase HPLC column (20 mm×2.1 mm) at a flow rate of 0.5 mL/min. The mobile phase consisted of 0.1% formic acid in water (solvent A) and 0.1% formic acid in 100% acetonitrile (solvent B).
The extent of metabolism was calculated as the disappearance of the test compound, compared to the 0-min control reaction incubations. Initial rates were calculated for the compound concentration and used to determine t1/2 values and subsequently, the intrinsic clearance, CLint=(0.693) (1/t1/2 (min)) (mL incubation/mg of S9 protein).

[2] = system: p-ERK in human cutaneous neurofibroma explants; experiment: Human cutaneous neurofibroma explant p-ERK suppression (Biological Example 7); assay type: cell-based; details: topical gel formulation (1%), harvested at 4 hours, vs vehicle gel
Text: The primary objective was to assess the efficacy of a topically-formulated compound described herein in suppressing p-ERK, a downstream biomarker of RAS/MAPK signaling in neurofibroma explants. The secondary objectives was to assess permeability (where the compound was applied topically) of neurofibroma explants treated with a compound described herein.
Primary dermal neurofibromas or cutaneous neurofibromas were obtained from patients with clinical or genetic diagnoses of NF1. Discarded human neurofibromas samples were obtained from the Stanford Surgery Clinic, using an approved human subjects protocol (Stanford IRB #18325). Specimens were identified under the direction of the Principal Investigator and placed in cell proliferation media (DMEM/F12 containing penicillin/streptomycin (0.1%); fungizone (40 μg/mL); B27 (without vitamin A).
Specimens were identified under the direction of the Principal Investigator
Specimens were chopped into 2 mm fragments and placed in 24-well plates containing cell proliferation media (DMEM/F12 containing penicillin/streptomycin (0.1%); fungizone (40 μg/mL); B27 (without vitamin A) and submerged in media with drug. For topical gel application, samples were placed in 96 well plates with epidermal surface exposed to air. […]

C57BL/6J mice = experiment: In vivo mouse model of skin and systemic toxicity (Biological Example 6b); details: topically applied 1%, twice daily 5 days per week
Experimental: These mice are also shaved weekly.
Biological Example 6b was carried out with the following arms: oral vehicle, oral Trametinib, topical vehicle, and topical Trametinib (1%).

T1 sequence (Q02750 whole entry): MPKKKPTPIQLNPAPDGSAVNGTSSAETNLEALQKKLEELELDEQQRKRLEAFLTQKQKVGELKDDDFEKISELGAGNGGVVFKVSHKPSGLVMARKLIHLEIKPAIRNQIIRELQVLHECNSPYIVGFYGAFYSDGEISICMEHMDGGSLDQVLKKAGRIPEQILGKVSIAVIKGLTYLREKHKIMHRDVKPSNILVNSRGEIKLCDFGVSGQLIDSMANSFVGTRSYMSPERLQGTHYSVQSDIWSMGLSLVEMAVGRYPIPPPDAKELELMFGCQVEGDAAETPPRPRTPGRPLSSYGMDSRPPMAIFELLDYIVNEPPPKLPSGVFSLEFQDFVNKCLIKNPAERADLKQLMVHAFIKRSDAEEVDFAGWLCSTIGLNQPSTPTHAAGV

| SMILES | IC50 (MAP2K1 (MEK1)) | Assay 5: human liver S9 intrinsic clearance value (μL/min/mg protein) ([1]; human liver S9) | half-life at 1 μM ([1]; pH 7.4, Table 1, human liver S9 fraction, 1 μM test compound, 2 mg/mL S9 protein, NADPH, read-out: Liver S9 t1/2) | microsomal CLint at 1 μM ([1]; pH 7.4, Table 1, human liver S9 fraction, read-out: CLint (μL/min/mg protein)) | p-ERK in human cutaneous neurofibroma explants [2] | toxicity of topical application (C57BL/6J mice) |
| --- | --- | --- | --- | --- | --- | --- |
| O=C(NOCCO)c1c(Nc2ccc(I)cc2F)sc2ncc(F)cc12 [Ex. 8, 2-((2-Fluoro-4-iodophenyl)amino)-N-(2-hydroxyethoxy)-5-fluorothieno[2,3-b]pyridine-3-carboxamide] | 256 nM | 57.15 μL/min/mg protein | 6 min | 57.1 µL/min/mg | suppression of p-ERK |  |
| CC(=O)Nc1cccc(-n2c(=O)n(C3CC3)c(=O)c3c(Nc4ccc(I)cc4F)n(C)c(=O)c(C)c32)c1 [trametinib] |  |  |  |  |  | found dead, or had to be sacrificed due to unacceptable weight loss; also recorded: significant toxicity |
